Where a name gives a salt, the structure may show the parent alone.
Key:
Aurora A = target: T1, Aurora A (Homo sapiens, UniProt O14965); assay: Aurora A inhibitory action (33P-ATP kinase assay, Kemptide substrate); assay type: biochemical; conditions: 20 μM ATP, 30° C., 20 minutes
T1 construct: histidine tag (N); made in house; host or cells: Escherichia coli BL21-CodonPlus(DE3)-RIL
T1 sequence (O14965 1-403): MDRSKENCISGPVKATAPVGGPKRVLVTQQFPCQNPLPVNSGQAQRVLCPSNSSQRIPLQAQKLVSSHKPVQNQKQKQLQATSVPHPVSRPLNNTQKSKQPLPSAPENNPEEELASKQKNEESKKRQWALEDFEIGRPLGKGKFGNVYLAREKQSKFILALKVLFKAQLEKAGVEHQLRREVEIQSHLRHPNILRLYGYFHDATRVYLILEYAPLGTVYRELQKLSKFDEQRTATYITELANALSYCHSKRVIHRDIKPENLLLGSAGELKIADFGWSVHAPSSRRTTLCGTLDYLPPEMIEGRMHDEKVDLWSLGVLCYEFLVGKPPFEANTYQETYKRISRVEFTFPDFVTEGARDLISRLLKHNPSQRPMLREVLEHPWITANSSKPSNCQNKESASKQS
Source text: Aurora A Inhibitory Action
(1) Purification of Aurora A
(§1) cDNA of Aurora A having histidine tag fused at the amino terminal was integrated into an expression vector, which was then highly expressed in Escherichia coli BL2 1-CodonPlus(DE3)-RIL cells. The Escherichia coli cells were recovered and solubilized, and then the histidine-tagged Aurora A protein was adsorbed onto a nickel chelate column and eluted from the column with imidazole. The active fraction was desalted with a desalting column to give a pure enzyme.
(2) Measurement of Activity of Aurora A
For measurement of the activity of Aurora A, the substrate used was Kemptide (Lys-Arg-Arg-Ala-Ser-Lys-Gly) (SEQ.ID.NO.: 1), a synthetic peptide purchased from Sigma-Aldrich, Inc. [Certificate of analysis (Upstate, Inc.)].
Reaction was conducted by a partial modification of a method by Upstate, Inc. [Kinase Profiler™ Assay Protocols]. The amount of the reaction liquid was 21.1 μL, and the composition of the reaction buffer (R2 buffer) was 50 mM Tris-hydrochloride buffer (pH 7.4)/15 mM magnesium acetate/0.2 mM ethylenediamine-N,N,N′,N′-tetraacetate (EDTA). To this, purified Aurora A, 100 μM of a substrate peptide, 20 μM of unlabeled adenosine triphosphate (ATP) and 0.5 μCi of [γ-^33P] labeled ATP (2,500 Ci/mmole or more) were added, and the mixture was reacted at 30° C. for 20 minutes. Then, 10 μL of 350 mM phosphate buffer was added to the reaction system to stop the reaction. The substrate peptide was adsorbed on a P81 paper filter 96-well plate and then washed with 130 mM phosphate buffer for several times. The radiation activity of the peptide was measured with a liquid scintillation counter. The [γ-^33P] labeled ATP was purchased from Amersham Biosciences Co., Ltd.
(§2) The compound to be tested was added to the reaction system such that a dilution series of the compound in dimethylsulfoxide was first prepared, and 1.1 μL of this solution was added. A control was provided by adding 1.1 μL of DMSO to the reaction system.

Aurora B = target: T2, Aurora B (Homo sapiens, UniProt Q96GD4); assay: Aurora B inhibitory action (33P-ATP kinase assay, Kemptide substrate); assay type: biochemical; conditions: 100 μM ATP, 30° C., 20 minutes
T2 construct: histidine tag (N); made in house; host or cells: Escherichia coli BL21-CodonPlus(DE3)-RIL
Source text: Aurora B Inhibitory Action
(1) Purification of Aurora B
as §1, with “of Aurora B having histidine” for “of Aurora A having histidine”, “Escherichia coli BL21-CodonPlus(DE3)-RIL cells. The” for “Escherichia coli BL2 1-CodonPlus(DE3)-RIL cells. The”
(2) Measurement of Activity of Aurora B
For measurement of the activity of Aurora B, the substrate used was Kemptide (Lys-Arg-Arg-Ala-Ser-Lys-Gly) (SEQ.ED.NO.: 1), a synthetic peptide purchased from Sigma-Aldrich, Inc. [Certificate of analysis (Upstate, Inc.)].
Reaction was conducted by a partial modification of the method of activity measurement for Aurora A. The amount of the reaction liquid was 21.1 μL, and the composition of the reaction buffer (R2 buffer) was 50 mM Tris-hydrochloride buffer (pH 7.4)/15 mM magnesium acetate/0.2 mM ethylenediamine-N,N,N′,N′-tetraacetate (EDTA). To this, purified Aurora B, 100 μM of a substrate peptide, 100 μM of unlabeled adenosine triphosphate (ATP) and 1 μCi of [γ-^33P] labeled ATP (2,500 Ci/mmole or more) were added, and the mixture was reacted at 30° C. for 20 minutes. Then, 10 μL of 350 mM phosphate buffer was added to the reaction system to stop the reaction. The substrate peptide was adsorbed on a P81 paper filter 96-well plate and then washed with 130 mM phosphate buffer for several times. The radiation activity of the peptide was measured with a liquid scintillation counter. The [γ-^33P] labeled ATP was purchased from Amersham Biosciences Co., Ltd.
as §2

T2 sequence (Q96GD4 whole entry): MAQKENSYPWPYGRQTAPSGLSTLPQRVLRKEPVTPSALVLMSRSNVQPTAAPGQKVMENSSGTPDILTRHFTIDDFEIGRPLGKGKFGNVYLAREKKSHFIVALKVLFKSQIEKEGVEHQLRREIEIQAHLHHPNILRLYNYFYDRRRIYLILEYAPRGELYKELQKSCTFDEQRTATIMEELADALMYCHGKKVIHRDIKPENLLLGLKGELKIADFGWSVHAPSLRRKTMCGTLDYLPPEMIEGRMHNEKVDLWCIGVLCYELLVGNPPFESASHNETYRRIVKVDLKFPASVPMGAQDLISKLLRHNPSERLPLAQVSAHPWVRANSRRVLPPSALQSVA

Structure (SMILES) | IC50 (Aurora A) [nM] | IC50 (Aurora B) [nM]
O=C(c1cccc(Cl)c1F)N1CCN(Cc2cccc(Nc3cc[nH]n3)n2)CC1 [Example 16, 6-((4-(3-chloro-2-fluorobenzoyl)piperazin-1-yl)methyl)-N-1H-pyrazol-3-ylpyridin-2-amine] | 1.8 | 1300
O=C(c1cccc(C(F)(F)F)c1F)N1C[C@H]2C[C@@H]1CN2Cc1cncc(Nc2cc[nH]n2)n1 [Example 48, 6-(((1R,4R)-5-(2-fluoro-3-(trifluoromethyl)benzoyl)-2,5-diazabicyclo[2.2.1]hept-2-yl)methyl)-N-1H-pyrazol-3-ylpyrazin-2-amine] | 2.8 | 2900
O=C(c1cccc(Cl)c1F)N1CCN(Cc2cc(Cn3nccn3)cc(Nc3nccs3)n2)CC1 [Example 91, 6-((4-(3-chloro-2-fluorobenzoyl)piperazin-1-yl)methyl)-N-thiazol-2-yl-4-(2H-1,2,3-triazol-2-ylmethyl)pyridin-2-amine trifluoroacetate] | 1.4 | 1200
O=C(c1cccc(C(F)(F)F)c1F)N1CCN(Cc2cncc(Nc3ncns3)n2)CC1 [Example 57, 6-((4-(2-fluoro-(3-trifluoromethyl)benzoyl)piperazin-1-yl)methyl)-N-1,2,4-thiadiazol-5-ylpyrazin-2-amine] | 15 | 28000
O=C(c1cccc(C(F)F)c1F)N1CCN(Cc2cccc(Nc3nccs3)n2)CC1 [Example 15, 6-((4-(3-(difluoromethyl)-2-fluorobenzoyl)piperazin-1-yl)methyl)-N-thiazol-2-ylpyridin-2-amine] | 1.4 | 1000
O=C(c1nccs1)N1CCN(Cc2cccc(Nc3ncc(Cl)s3)n2)CC1 [Example 67, 6-((4-(thiazol-2-ylcarbonyl)piperazin-1-yl)methyl)-N-(5-chlorothiazol-2-yl)pyridin-2-amine] | 17 | 320
CS(=O)(=O)Cc1cc(CN2CCN(C(=O)c3cccc(Cl)c3F)CC2)nc(Nc2nccs2)c1 [Example 93, 6-((4-(3-chloro-2-fluorobenzoyl)piperazin-1-yl)methyl)-4-((methanesulfonyl)methyl)-N-thiazol-2-ylpyridin-2-amine] | 0.36 | 250
O=C(c1cccc(C(F)F)c1F)N1CCN(Cc2cccc(Nc3ncns3)n2)CC1 [Example 41, 6-((4-(2-fluoro-3-(difluoromethyl)benzoyl)piperazin-1-yl)methyl)-N-1,2,4-thiadiazol-5-ylpyridin-2-amine trifluoroacetate] | 2.9 | 5000
O=C(c1cccnc1F)N1CCN(Cc2cccc(Nc3ncc(Br)s3)n2)CC1 [Example 78, 6-((4-((2-fluoropyridin-3-yl)carbonyl)piperazin-1-yl)methyl)-N-(5-bromothiazol-2-yl)pyridin-2-amine] | 2 | 240
O=C(c1cccc(Br)c1)N1CCN(Cc2cccc(Nc3ncns3)n2)CC1 [Example 38, 6-((4-(3-bromobenzoyl)piperazin-1-yl)methyl)-N-1,2,4-thiadiazol-5-ylpyridin-2-amine] | 9.1 | 9500
CN(C)Cc1cc(CN2CCN(C(=O)c3cccc(Cl)c3F)CC2)nc(Nc2nccs2)c1 [Example 94, 6-((4-(3-chloro-2-fluorobenzoyl)piperazin-1-yl)methyl)-4-((dimethylamino)methyl)-N-thiazol-2-ylpyridin-2-amine] | 1.1 | 1100
O=C(c1cccc(Cl)c1F)N1CCN(Cc2cc(Br)cc(Nc3nccs3)n2)CC1 [Example 81, 4-bromo-6-((4-(3-chloro-2-fluorobenzoyl)piperazin-1-yl)methyl)-N-thiazol-2-ylpyridin-2-amine] | 0.33 | 300
O=C(c1cccc(Br)c1F)N1CCN(Cc2cccc(Nc3cc[nH]n3)n2)CC1 [Example 20, 6-((4-(3-bromo-2-fluorobenzoyl)piperazin-1-yl)methyl)-N-1H-pyrazol-3-ylpyridin-2-amine trifluoroacetate] | 1.1 | 1800
O=C(c1ccccc1)N1CCN(Cc2cccc(Nc3cc(C4CC4)[nH]n3)n2)CC1 [Example 31, 6-((4-benzoylpiperazin-1-yl)methyl)-N-(5-cyclopropyl-1H-pyrazol-3-yl)pyridin-2-amine] | 37 | 760
O=C(c1cccc(F)c1Cl)N1CCN(Cc2cccc(Nc3nccs3)n2)CC1 [Example 9, 6-((4-(2-chloro-3-fluorobenzoyl)piperazin-1-yl)methyl)-N-thiazol-2-ylpyridin-2-amine] | 1.3 | 760
O=C(c1cccc(Cl)c1F)N1CCN(Cc2cc(Cn3cncn3)cc(Nc3nccs3)n2)CC1 [Example 92, 6-((4-(3-chloro-2-fluorobenzoyl)piperazin-1-yl)methyl)-N-thiazol-2-yl-4-(1H-1,2,4-triazol-1-ylmethyl)pyridin-2-amine trifluoroacetate] | 0.93 | 830
O=C(c1ccsc1)N1CCN(Cc2cccc(Nc3ncc(Cl)s3)n2)CC1 [Example 65, 6-((4-(3-thienylcarbonyl)piperazin-1-yl)methyl)-N-(5-chlorothiazol-2-yl)pyridin-2-amine] | 2.4 | 160
O=C(Cc1ccc(Cl)c(Cl)c1)N1CCN(Cc2cccc(Nc3cc[nH]n3)n2)CC1 [Example 21, 6-((4-((3,4-dichlorophenyl)acetyl)piperazin-1-yl)methyl)-N-1H-pyrazol-3-ylpyridin-2-amine trifluoroacetate] | 16 | 6800
O=C(c1cccc(Cl)c1F)N1CCN(Cc2cccc(Nc3ncns3)n2)CC1 [Example 32, 6-((4-(3-chloro-2-fluorobenzoyl)piperazin-1-yl)methyl)-N-1,2,4-thiadiazol-5-ylpyridin-2-amine] | 3.7 | 4800
O=C(c1ccnc(F)c1)N1CCN(Cc2cccc(Nc3ncc(Br)s3)n2)CC1 [Example 79, 6-((4-(2-fluoroisonicotinoyl)piperazin-1-yl)methyl)-N-(5-bromothiazol-2-yl)pyridin-2-amine] | 26 | 2200
O=C(c1cccc(C(F)(F)F)c1Cl)N1CCN(Cc2cncc(Nc3cc[nH]n3)n2)CC1 [Example 51, 6-((4-(2-chloro-3-(trifluoromethyl)benzoyl)piperazin-1-yl)methyl)-N-1H-pyrazol-3-ylpyrazin-2-amine trifluoroacetate] | 0.98 | 930
COC(=O)c1cc(CN2CCN(C(=O)c3cccc(Cl)c3F)CC2)nc(Nc2nccs2)c1 [Example 82, methyl 2-((4-(3-chloro-2-fluorobenzoyl)piperazin-1-yl)methyl)-6-(thiazol-2-ylamino)isonicotinate] | 0.51 | 210

Source: patent US20080027042A1, “Novel Aminopyridine Derivatives Having Aurora a Selective Inhibitory Action” (priority 2004, published 2008)
